Experimental data reported in patent publication US20260256929A1, “PROTEASE/ENZYME CLEAVABLE LINKER-PAYLOADS AND PROTEIN CONJUGATES” (priority 2022, published 2026).
Read-outs that look alike come from different tables or passages of the source.

How the values were obtained:
Assay type in all cases: cell-based
[1] = system: MDA-MB-468; experiment: Free drug cell killing activity (cell proliferation assay, Cell Titer-Glo); details: for EC50: Homo sapiens
[2] = system: MDA-MB-231; experiment: as above; details: for EC50: Homo sapiens
[3] = system: A549; experiment: as above; details: for EC50: Homo sapiens
Procedure: (§1) The in vitro cell killing activity of exatecan, gly-exatecan, and hemiasterlin were evaluated in a panel of breast cancer and lung cancer cell lines.
(§2) MDA-MB-361, SKBR3, BT20, HCC38, HCC1143, HCC1937, JIMT1, MCF-7, A549, NCI-H441, NCI-H520, NCI-H1703, NCI-H1975, NCI-H2110, NCI-H226, NCI-H292, NCI-H358 cells were purchased from ATCC (American Type Culture Collection, Manassas, VA, USA). All the cell lines were maintained in DMEM/F12 (1:1), high glucose (Corning, Corning, NY) supplemented with 10% heat-inactivated fetal bovine serum (Thermo Scientific, Grand Island, NY), 2 mM glutamax (Thermo Scientific, Grand Island, NY), and 1× Penicillin/Streptomycin (Corning, Corning, NY). Cytotoxicity effect of the Exatecan warhead was measured with a cell proliferation assay. Cells were seeded in a 384-well flat bottom white polystyrene plate at 625 cells/25 uL the day before the actual assay starts. Exatecan was formulated at 2× starting concentration in cell culture medium, serial diluted (1:3) under sterile conditions and added onto cells in triplicates. Plates were cultured at 37° C. in a CO2 incubator for 120 hours. For cell viability measurement, 30 microliter of Cell Titer-Glo® reagent (Promega Corp, Madison, WI) was added into each well, and plates processed as per product instructions. Relative luminescence was measured on an ENVISION® plate reader (Perkin-Elmer; Waltham, MA). Relative luminescence readings were converted to % viability using untreated cells as controls. Data was fitted with non-linear regression analysis, using log (inhibitor) vs. response, variable slope, 4-parameter fit equation using GraphPad Prism.

[4] = system: BT20; experiment: as above; details: for EC50: Homo sapiens
Procedure: as §1, §2

[5] = system: HCC1143; experiment: as above; details: for EC50: Homo sapiens
Procedure: as §1, §2

[6] = system: HCC1937; experiment: as above; details: for EC50: Homo sapiens
Procedure: as §1, §2

[7] = system: HCC38; experiment: as above; details: for EC50: Homo sapiens
Procedure: as §1, §2

[8] = system: JIMT1; experiment: as above; details: for EC50: Homo sapiens
Procedure: as §1, §2

[9] = system: MCF-7; experiment: as above; details: for EC50: Homo sapiens
Procedure: as §1, §2

[10] = system: MDA-MB-361; experiment: as above; details: for EC50: Homo sapiens
Procedure: as §1, §2

[11] = system: NCI-H1703; experiment: as above; details: for EC50: Homo sapiens
Procedure: as §1, §2

[12] = system: NCI-H1975; experiment: as above; details: for EC50: Homo sapiens
Procedure: as §1, §2

[13] = system: NCI-H2110; experiment: as above
Procedure: as §1, §2

[14] = system: NCI-H226; experiment: as above; details: for EC50: Homo sapiens
Procedure: as §1, §2

[15] = system: NCI-H292; experiment: as above; details: for EC50: Homo sapiens
Procedure: as §1, §2

[16] = system: NCI-H358; experiment: as above; details: for EC50: Homo sapiens
Procedure: as §1, §2

[17] = system: NCI-H441; experiment: as above; details: for EC50: Homo sapiens
Procedure: as §1, §2

[18] = system: NCI-H520; experiment: as above; details: NCI-H520, 120 hours; for EC50: Homo sapiens
Procedure: as §1, §2

[19] = system: SKBR3; experiment: as above; details: for EC50: Homo sapiens
Procedure: as §1, §2

[20] = system: NCI-H2343; experiment: as above
[21] = system: panel of breast cancer and lung cancer cell lines; experiment: Free drug cell killing activity across the whole panel; details: all the cell lines tested (Table 2), 120 hours; read-out: EC50 values ranging over all the cell lines tested
Procedure: as §1
as §2, with “For cell viability measurement, 30 microliter of Cell Titer-Glo® reagent (Promega Corp, Madison, WI) was added into each well, and plates processed as per product instructions.” left out, “Data was fitted with non-linear regression analysis, using log (inhibitor) vs. response, variable slope, 4-parameter fit equation using GraphPad Prism.” left out

CC[C@@]1(O)C(=O)OCc2c1cc1n(c2=O)Cc2c-1nc1cc(F)c(C)c3c1c2[C@@H](N)CC3 [Exatecan, exatecan]
EC50 ([1]; MDA-MB-468, 120 h): 0.59 nM | Span (%) ([1]; MDA-MB-468, 120 hours): 97% | EC50 ([2]; MDA-MB-231, 120 h): 0.84 nM | Span (%) ([2]; MDA-MB-231, 120 hours): 64% | Span (%) ([3]; A549, 120 hours): 96% | EC50 ([3]; A549, 120 h): 1.2 nM | Span (%) ([4]; BT20, 120 hours): 96% | EC50 ([4]; BT-20, 120 h): 0.91 nM | Span (%) ([5]; HCC1143, 120 hours): 76% | EC50 ([5]; HCC1143, 120 h): 0.85 nM | Span (%) ([6]; HCC1937, 120 hours): 94% | EC50 ([6]; HCC1937, 120 h): 3.5 nM | Span (%) ([7]; HCC38, 120 hours): 96% | EC50 ([7]; HCC38, 120 h): 0.38 nM | EC50 ([8]; JIMT-1, 120 h): 1.6 nM | Span (%) ([8]; JIMT1, 120 hours): 98% | EC50 ([9]; MCF7, 120 h): 1.2 nM | Span (%) ([9]; MCF-7, 120 hours): 83% | EC50 ([10]; MDA-MB-361, 120 h): 1.2 nM | Span (%) ([10]; MDA-MB-361, 120 hours): 96% | EC50 ([11]; NCI-H1703, 120 h): 1.1 nM | Span (%) ([11]; NCI-H1703, 120 hours): 93% | EC50 ([12]; NCI-H1975, 120 h): 0.87 nM | Span (%) ([12]; NCI-H1975, 120 hours): 90% | EC50 ([13]; NCI-H2110, 120 h): 0.61 nM | Span (%) ([13]; NCI-H2110, 120 hours): 91% | EC50 ([14]; NCI-H226, 120 h): 1.08 nM | Span (%) ([14]; NCI-H226, 120 hours): 98% | EC50 ([15]; NCI-H292, 120 h): 0.36 nM | Span (%) ([15]; NCI-H292, 120 hours): 98% | EC50 ([16]; NCI-H358, 120 h): 0.53 nM | Span (%) ([16]; NCI-H358, 120 hours): 96% | EC50 ([17]; NCI-H441, 120 h): 0.32 nM | Span (%) ([17]; NCI-H441, 120 hours): 93% | EC50 [18]: 0.6 nM | Span (%) [18]: 96% | EC50 ([19]; SK-BR-3, 120 h): 0.39 nM | Span (%) ([19]; SKBR3, 120 hours): 96% | EC50 ([20]; 120 h): 12 nM | Span (%) ([20]; NCI-H2343, 120 hours): 70% | EC50 [21]: 0.32 to 4.2 nM

CC[C@@]1(O)C(=O)OCc2c1cc1n(c2=O)Cc2c-1nc1cc(F)c(C)c3c1c2[C@@H](NC(=O)CN)CC3 [Gly-exatecan, gly-exatecan]
EC50 ([1]; MDA-MB-468, 120 hours, read-out: EC50): 5.3 nM | Span (%) ([1]; MDA-MB-468, 120 hours): 91% | EC50 ([2]; MDA-MB-231, 120 hours, read-out: EC50): 3.8 nM | Span (%) ([2]; MDA-MB-231, 120 hours): 60% | Span (%) ([3]; A549, 120 hours): 90% | EC50 ([3]; A549, 120 hours, read-out: EC50): 44 nM | Span (%) ([4]; BT20, 120 hours): 92% | EC50 ([4]; BT-20, BT20, 120 hours, read-out: EC50): 21 nM | Span (%) ([5]; HCC1143, 120 hours): 76% | EC50 ([5]; HCC1143, 120 hours, read-out: EC50): 14 nM | Span (%) ([6]; HCC1937, 120 hours): 87% | EC50 ([6]; HCC1937, 120 hours, read-out: EC50): 35 nM | Span (%) ([7]; HCC38, 120 hours): 93% | EC50 ([7]; HCC38, 120 hours, read-out: EC50): 6.1 nM | EC50 ([8]; JIMT-1, JIMT1, 120 hours, read-out: EC50): 15 nM | Span (%) ([8]; JIMT1, 120 hours): 70% | EC50 ([9]; MCF7, MCF-7, 120 hours, read-out: EC50): 8.8 nM | Span (%) ([9]; MCF-7, 120 hours): 75% | EC50 ([10]; MDA-MB-361, 120 hours, read-out: EC50): 4.5 nM | Span (%) ([10]; MDA-MB-361, 120 hours): 98% | EC50 ([11]; NCI-H1703, 120 hours, read-out: EC50): 25 nM | Span (%) ([11]; NCI-H1703, 120 hours): 91% | EC50 ([12]; NCI-H1975, 120 hours, read-out: EC50): 43 nM | Span (%) ([12]; NCI-H1975, 120 hours): 84% | Span (%) ([13]; NCI-H2110, 120 hours): 89% | EC50 ([13]; NCI-H2110, 120 hours, read-out: EC50): 9.2 nM | EC50 ([14]; NCI-H226, 120 hours, read-out: EC50): 23 nM | Span (%) ([14]; NCI-H226, 120 hours): 99% | EC50 ([15]; NCI-H292, 120 hours, read-out: EC50): 4 nM | Span (%) ([15]; NCI-H292, 120 hours): 94% | EC50 ([16]; NCI-H358, 120 hours, read-out: EC50): 7.5 nM | Span (%) ([16]; NCI-H358, 120 hours): 95% | EC50 ([17]; NCI-H441, 120 hours, read-out: EC50): 5.1 nM | Span (%) ([17]; NCI-H441, 120 hours): 90% | EC50 [18]: 11 nM | Span (%) [18]: 80% | EC50 ([19]; SK-BR-3, SKBR3, 120 hours, read-out: EC50): 4.2 nM | Span (%) ([19]; SKBR3, 120 hours): 95% | Span (%) ([20]; NCI-H2343, 120 hours): 55% | EC50 ([20]; NCI-H2343, 120 hours, read-out: EC50): 30 nM | EC50 [21]: 3.8 to 44 nM
